Drawing on patent US8975417B2, “Pyrazolopyrrolidine derivatives and their use in the treatment of disease” (Novartis AG, priority 2013, dated 2015), this text covers IC (total growth inhibition) and IC50 for 13 compounds.

The subject of one test is THP-1 cells. The test can be described thus: Cell growth inhibition assay (CellTiter-Glo), THP-1. Type of test: cell-based. The settings on record: Homo sapiens, read-out: THP-1 TGI. The procedure, abridged: (§1)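 Compounds tested as 3-fold dilution series starting at 10 μM (DMSO 0.1% final); viability read by cellular ATP (CTG luminescence) at 37° C. Signal corrected for no-cell background and a day-0 plate, scaled −100% to 100%; four-parameter fitting gives IC50 and TGI.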

The test system of the next test is K-562 cells. The test can be described thus: Cell growth inhibition assay (CellTiter-Glo), K-562. It is filed as cell-based, human. The settings on record: Homo sapiens, K562, read-out: K-562 TGI. The method, boiled down:
as §1
Background: ATP-based viability assays read luminescence as a measure of living cells.

A further test deals with His-Brd2(60-472) (Homo sapiens (Human), UniProt P25440). Nature of the test: TR-FRET in-vitro binding assay for BRD2. The settings on record: biochemical. The method, boiled down:
(§2)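 Eight-point dilution series tested against in-house His-BRD2(60-472), BRD3(20-477) or BRD4(44-477) (45 nM in dispensed solution) binding acetyl-histone H4 (AcK5,8,12,16; 60 nM in dispensed solution). Incubation 35 min at 30 °C, pH 7.5 HEPES buffer; detection by TR-FRET using Eu-anti-His6 and streptavidin-allophycocyanin.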
A general note: Time-resolved FRET reads energy transfer from a long-lived donor to a nearby acceptor.

The target in another test is His-Brd3(20-477) (Homo sapiens (Human), UniProt Q15059). The test can be described thus: TR-FRET in-vitro binding assay for BRD3. The settings on record: biochemical. The method, boiled down:
as §2

A further test deals with MV-4-11 cells. Nature of the test: Cell growth inhibition assay (CellTiter-Glo), MV-4-11. Type of test: cell-based. The note with it: Homo sapiens, MV4-11, read-out: MV-4-11 TGI. The method, boiled down:
as §1

Test [1] concerns the target nuclear BRD4-NUT foci in HCC2494 NUT midline carcinoma cells (Homo sapiens (Human), UniProt O60885+Q86Y26). The test can be described thus: Nut-foci formation assay. It is filed as cell-based. The note with it: 24 hours, read-out: HCS Brd4-NUT IC50. On the procedure:
HCC2494 NUT midline carcinoma cells (expressing BRD4-NUT-fusion) were obtained from the University of Texas Southwestern and cultured in RPMI-1640 medium containing 10% Foetal Calf Serum at 37° C. in a humidified 5% CO2 incubator.
Compound-mediated inhibition of BRD4 activity was monitored by quantification of the number and intensity of nuclear BRD4-NUT foci using automated immunofluorescence microscopy. Briefly, 5000 cells in 20 μL fresh medium were seeded into Poly-D-Lysine-precoated 384-well plates and incubated overnight at 37° C. and 5% CO2, followed by addition of 5 μl medium containing compound dilutions at 5-fold their final intended concentration. Dose-response effects were assessed by 3-fold serial dilutions of the test compound, starting at 10 μM. Following incubation of the cells for 24 hours at 37° C. and 5% CO2, the cells were fixed by incubation with 3.7% formaldehyde for 10 min, followed by immunofluorescence staining using rabbit anti-NUT (Cell Signaling Technologies, Cat#3625) as primary, and AlexaFluor488-labeled goat anti-rabbit (Invitrogen, Cat#A11008) as secondary antibody (latter complemented with 1 μg/mL Hoechst33342 as DNA dye). Assay plates were imaged using the appropriate filter sets on the Cellomics VTi automated fluorescence microscopy platform (ThermoFisher Scientific) and the population average of the number of NUT-foci per nucleus is quantified using the Cellomics Spot Detection BioApplication image analysis algorithm (ThermoFisher Scientific). The effect of a particular test compound concentration on NUT-foci number and intensity is expressed as percentage of the value obtained for cells treated with vehicle only (DMSO, 0.1% final concentration), which was set as 100. Compound concentrations leading to half-maximal (IC50) inhibition of the aforementioned readout parameters were determined using standard four parameter curve fitting.

The target of another test is His-Brd4(44-477) (Homo sapiens (Human), UniProt O60885). Nature of the test: TR-FRET in-vitro binding assay for BRD4. The settings on record: biochemical. The method, boiled down:
as §2

Test [2] concerns the target His-CREBBP (1081-1197) bromodomain (Homo sapiens (Human), UniProt Q92793). The test can be described thus: AlphaScreen in-vitro binding assay for CREBBP. The note with it: biochemical. The method, boiled down: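 Ni-chelate acceptor and streptavidin donor beads (45 µg/mL each, in 50 mM HEPES pH 7.5, 150 mM NaCl, 0.02% BSA) were then added for 60 min at room temperature. IC50 came from 8-point non-linear regression.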
In general terms: Bead proximity is the source of the signal in Alpha formats.

Chain of His-Brd2(60-472) (P25440 60-472): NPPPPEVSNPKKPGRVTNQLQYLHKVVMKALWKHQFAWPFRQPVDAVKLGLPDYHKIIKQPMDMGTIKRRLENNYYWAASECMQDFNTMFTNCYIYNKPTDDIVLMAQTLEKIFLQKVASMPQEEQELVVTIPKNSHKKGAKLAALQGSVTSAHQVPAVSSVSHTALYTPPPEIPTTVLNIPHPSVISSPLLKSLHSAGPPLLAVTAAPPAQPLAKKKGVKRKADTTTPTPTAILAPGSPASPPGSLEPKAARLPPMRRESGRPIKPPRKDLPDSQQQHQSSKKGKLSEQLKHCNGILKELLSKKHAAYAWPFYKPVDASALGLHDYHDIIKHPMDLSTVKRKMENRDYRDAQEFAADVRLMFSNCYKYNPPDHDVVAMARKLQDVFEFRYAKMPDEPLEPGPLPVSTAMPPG
Chain of His-Brd3(20-477) (Q15059 20-477): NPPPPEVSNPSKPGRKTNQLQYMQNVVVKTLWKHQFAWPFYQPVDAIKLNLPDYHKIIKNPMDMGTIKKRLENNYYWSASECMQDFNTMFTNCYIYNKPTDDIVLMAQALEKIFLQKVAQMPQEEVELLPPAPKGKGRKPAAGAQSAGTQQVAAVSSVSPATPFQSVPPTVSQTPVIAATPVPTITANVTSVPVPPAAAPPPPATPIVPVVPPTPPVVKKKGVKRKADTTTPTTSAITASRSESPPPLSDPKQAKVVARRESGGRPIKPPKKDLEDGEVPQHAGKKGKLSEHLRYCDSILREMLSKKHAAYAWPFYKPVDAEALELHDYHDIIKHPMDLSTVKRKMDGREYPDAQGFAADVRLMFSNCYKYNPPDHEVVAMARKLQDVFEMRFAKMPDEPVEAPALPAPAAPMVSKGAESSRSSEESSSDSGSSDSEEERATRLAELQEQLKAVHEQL
Chain of His-CREBBP (1081-1197) bromodomain (Q92793 1081-1197): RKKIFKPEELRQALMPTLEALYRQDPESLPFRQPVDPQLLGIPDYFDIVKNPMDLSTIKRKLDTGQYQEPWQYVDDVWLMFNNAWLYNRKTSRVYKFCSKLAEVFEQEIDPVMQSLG

As for `Cc1c2c(nn1C1CC1)C(=O)N(c1cc(Cl)c(=O)n(C)c1)[C@@H]2c1ccc(Cl)cc1` [Example 19, (R)-5-(5-chloro-1-methyl-6-oxo-1,6-dihydropyridin-3-yl)-4-(4-chlorophenyl)-2-cyclopropyl-3-methyl-4,5-dihydropyrrolo[3,4-c]pyrazol-6(2H)-one], the IC (total growth inhibition) in the test with THP-1 cells is 0.125 µM; in the test with K-562 cells, greater than 10 µM; in the test with MV-4-11 cells, 0.043 µM. Also, the IC50 (in general, the concentration that gives 50% inhibition) on His-Brd2(60-472) is 78 nM; on His-Brd3(20-477) it was 65 nM; in test [1] it was 118 nM; at His-Brd4(44-477), 73 nM.

For `Cc1cc(N2C(=O)c3n[nH]cc3C2c2ccc(Cl)cc2)cn(C)c1=O` (centres unmarked) [Example 26, 4-(4-chlorophenyl)-5-(1,5-dimethyl-6-oxo-1,6-dihydropyridin-3-yl)-4,5-dihydropyrrolo[3,4-c]pyrazol-6(2H)-one], the IC (total growth inhibition) in the test with THP-1 cells was 0.772 µM; in the test with K-562 cells, greater than 10 µM; in the test with MV-4-11 cells it was 0.317 µM. Moreover, the IC50 at His-Brd2(60-472) amounted to 210 nM; in test [1] it was 698 nM; on His-Brd4(44-477), 150 nM.

In the case of `CCc1nn(CCOC)c2c1C(c1ccc(Cl)cc1)N(c1cc(C)c(=O)n(C)c1)C2=O` (centres unmarked) [Example 86, 4-(4-chlorophenyl)-5-(1,5-dimethyl-6-oxo-1,6-dihydropyridin-3-yl)-3-ethyl-1-(2-methoxyethyl)-4,5-dihydropyrrolo[3,4-c]pyrazol-6(1H)-one], the IC (total growth inhibition) is 0.123 µM in the test on THP-1 cells, greater than 10 µM with K-562 cells and 0.0548 µM with MV-4-11 cells. The IC50 in test [1] turned out to be 38.4 nM.

For `Cc1nn(C2CC2)c2c1C(c1cccc(OC(F)(F)F)c1)N(c1cc(C)c(=O)n(C)c1)C2=O` (centres unmarked) [Example 91, 1-cyclopropyl-5-(1,5-dimethyl-6-oxo-1,6-dihydropyridin-3-yl)-3-methyl-4-(3-(trifluoromethoxy)phenyl)-4,5-dihydropyrrolo[3,4-c]pyrazol-6(1H)-one], the IC (total growth inhibition) was 1.44 µM in the test with THP-1 cells, greater than 10 µM in the test on K-562 cells and 0.978 µM with MV-4-11 cells. The IC50 in test [1] was 736 nM.

Regarding `Cc1nn(C2CC2)c2c1[C@H](c1ccc(Cl)cc1)N(c1cc(C)c3nnc(C)n3n1)C2=O` [Example 123, (S)-4-(4-chlorophenyl)-1-cyclopropyl-5-(3,8-dimethyl-[1,2,4]triazolo[4,3-b]pyridazin-6-yl)-3-methyl-4,5-dihydropyrrolo[3,4-c]pyrazol-6(1H)-one], the IC (total growth inhibition) in the test with THP-1 cells is greater than 10 µM; in the test with K-562 cells, greater than 10 µM; in the test on MV-4-11 cells, 5.81 µM. Besides, the IC50 in test [1] was determined as 8910 nM; on His-Brd4(44-477), 14000 nM.

As for `Cc1cc(N2C(=O)c3c(c(CO)nn3C3CC3)C2c2ccc(Cl)cc2)cn(C)c1=O` (centres unmarked) [Example 133, 4-(4-chlorophenyl)-1-cyclopropyl-5-(1,5-dimethyl-6-oxo-1,6-dihydropyridin-3-yl)-3-(hydroxymethyl)-4,5-dihydropyrrolo[3,4-c]pyrazol-6(1H)-one], the IC (total growth inhibition) in the test with THP-1 cells was 0.327 µM; in the test on K-562 cells it was greater than 10 µM; in the test with MV-4-11 cells, 0.102 µM. Besides, the results for the IC50 (at His-Brd3(20-477); in test [1]; at His-Brd4(44-477)) were 80 nM, 64.7 nM and 79 nM, respectively.

Regarding `Cc1cc(N2C(=O)c3nn(C4COC4)c(C)c3C2c2ccc(Cl)cc2)cn(C)c1=O` (centres unmarked) [Example 134, 4-(4-chlorophenyl)-5-(1,5-dimethyl-6-oxo-1,6-dihydropyridin-3-yl)-3-methyl-2-(oxetan-3-yl)-4,5-dihydropyrrolo[3,4-c]pyrazol-6(2H)-one], the IC (total growth inhibition) in the test on THP-1 cells was 0.291 µM; in the test on K-562 cells, greater than 10 µM; in the test on MV-4-11 cells, 0.187 µM. For the same compound, the IC50 is 190 nM on His-Brd2(60-472), 130 nM on His-Brd3(20-477), 92.2 nM in test [1] and 160 nM on His-Brd4(44-477).

With `Cc1nn(C2CNC2)c2c1C(c1ccc(Cl)cc1)N(c1cc(C)c(=O)n(C)c1)C2=O` (centres unmarked) [Example 138, 1-(azetidin-3-yl)-4-(4-chlorophenyl)-5-(1,5-dimethyl-6-oxo-1,6-dihydropyridin-3-yl)-3-methyl-4,5-dihydropyrrolo[3,4-c]pyrazol-6(1H)-one], the IC (total growth inhibition) in the test on THP-1 cells is 1.51 µM; in the test with K-562 cells, greater than 10 µM; in the test on MV-4-11 cells, 0.353 µM. Moreover, the IC50 is 240 nM on His-Brd3(20-477), 845 nM in test [1] and 290 nM on His-Brd4(44-477).

As to `CCn1nc(C)c2c1C(=O)N(c1cc(C)c3nnc(C)n3c1)C2c1ccc(Cl)cc1F` (centres unmarked) [Example 185, 4-(4-chloro-2-fluorophenyl)-5-(3,8-dimethyl-[1,2,4]triazolo[4,3-a]pyridin-6-yl)-1-ethyl-3-methyl-4,5-dihydropyrrolo[3,4-c]pyrazol-6(1H)-one], the IC (total growth inhibition) in the test with THP-1 cells was 0.0877 µM; in the test on K-562 cells it was greater than 10 µM; in the test with MV-4-11 cells, 0.0427 µM. Besides, the IC50 on His-Brd2(60-472) was 71 nM; on His-Brd3(20-477), 36 nM; in test [2] it was 14200 nM; at His-Brd4(44-477) it was less than 37 nM.

For `CCn1nc2c(c1C)C(c1ccc(Cl)cc1F)N(c1cc(C)c3nnc(C)n3c1)C2=O` (centres unmarked) [Example 186, 4-(4-chloro-2-fluorophenyl)-5-(3,8-dimethyl-[1,2,4]triazolo[4,3-a]pyridin-6-yl)-2-ethyl-3-methyl-4,5-dihydropyrrolo[3,4-c]pyrazol-6(2H)-one], the IC (total growth inhibition) in the test on THP-1 cells was 0.145 µM; in the test on K-562 cells, greater than 10 µM; in the test with MV-4-11 cells, 0.0882 µM. Also, the IC50 amounted to 140 nM at His-Brd2(60-472), 61 nM on His-Brd3(20-477), 6100 nM in test [2] and 69 nM at His-Brd4(44-477).

Turning to `Cc1nn(C(C)C)c2c1[C@@H](c1ccc(Cl)cc1F)N(c1cc(C)c3nnc(C)n3c1)C2=O` [Example 189, (S)-4-(4-chloro-2-fluorophenyl)-5-(3,8-dimethyl-[1,2,4]triazolo[4,3-a]pyridin-6-yl)-1-isopropyl-3-methyl-4,5-dihydropyrrolo[3,4-c]pyrazol-6(1H)-one], the IC (total growth inhibition) with THP-1 cells is 0.0261 µM; with K-562 cells it was greater than 10 µM; with MV-4-11 cells it was 0.0269 µM. Also, the IC50 at His-Brd2(60-472) worked out at 40 nM; at His-Brd3(20-477) it was 33 nM; in test [2], 3800 nM; on His-Brd4(44-477) it was 29 nM.

In the case of `COc1ncccc1-n1nc2c(c1C)C(c1ccc(Cl)cc1F)N(c1cc(C)c3nnc(C)n3c1)C2=O` (centres unmarked) [Example 194, 4-(4-chloro-2-fluorophenyl)-5-(3,8-dimethyl-[1,2,4]triazolo[4,3-a]pyridin-6-yl)-2-(2-methoxypyridin-3-yl)-3-methyl-4,5-dihydropyrrolo[3,4-c]pyrazol-6(2H)-one], the IC (total growth inhibition) in the test with THP-1 cells is 0.174 µM; with K-562 cells, greater than 10 µM; in the test with MV-4-11 cells it was 0.0936 µM. For the same compound, the IC50 on His-Brd2(60-472) stood at 90 nM; on His-Brd3(20-477), 65 nM; in test [2], 5200 nM; on His-Brd4(44-477), 45 nM.

For the compound `Cc1nn(C2CC2)c2c1C(c1ccc(Cl)cc1)N(c1cc(C)c3nnc(C(F)F)n3n1)C2=O` (centres unmarked) [Example 195, 4-(4-chlorophenyl)-1-cyclopropyl-5-(3-(difluoromethyl)-8-methyl-[1,2,4]triazolo[4,3-b]pyridazin-6-yl)-3-methyl-4,5-dihydropyrrolo[3,4-c]pyrazol-6(1H)-one], the IC (total growth inhibition) in the test on THP-1 cells is 0.0804 µM; in the test on K-562 cells, greater than 10 µM; with MV-4-11 cells it was 0.0452 µM. For the same compound, the IC50 at His-Brd2(60-472) is 20 nM; on His-Brd3(20-477), 16 nM; in test [2], greater than 37000 nM; on His-Brd4(44-477), less than 11 nM.
